# Test results taken from PubChem BioAssay (NCI).
# Where “and” joins values, the source holds several entries; their conditions need not be identical. Equal values may be shown once.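 Interpolation was linear, between the two tested concentrations surrounding the appropriate level; five concentrations were tested over 48 hours in 96-well plates. GI50 = concentration required for 50% inhibition of growth. The concentration for full growth arrest is given as TGI.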
# Legend:
# Assay in all cases: inhibition of tumour cell growth, NCI panel, 48 h
# [1] = tested on: HOP-62 NSCLC
# [2] = tested on: OVCAR-3 ovarian
# [3] = tested on: BT-549 breast
# [4] = tested on: HOP-92 NSCLC
# [5] = tested on: MCF7 breast
# [6] = tested on: PC-3 prostate
# [7] = tested on: EKVX NSCLC
# [8] = tested on: UACC-62 melanoma
# [9] = tested on: M14 melanoma
# [10] = tested on: A498 renal
SMILES,GI50 [1],TGI [1],GI50 [2],TGI [2],GI50 [3],TGI [3],GI50 [4],TGI [4],GI50 [5],TGI [5] [µM],GI50 [6],TGI [6] [µM],GI50 [7],TGI [7] [µM],GI50 [8],TGI [8] [µM],GI50 [9],TGI [9] [µM],GI50 [10],TGI [10]
NS(=O)(=O)c1ccc(NC(=O)c2cccc(NC3=C(Cl)C(=O)N(Cc4ccccc4)C3=O)c2)cc1,31.5 µM,> 100 µM,12.4 µM,27 µM,5.31 µM,21.3 µM,8.09 µM,31.1 µM,3.61 µM,14.6,6.57 µM,29,17.6 µM,38.8,9.05 µM,22.9,15.8 µM,38.7,9.25 µM,23.7 µM
O=C(/C=C/c1cccc2ccccc12)Nc1ncc(Cc2ccccc2)s1,0.885 µM,4.56 µM,0.738 µM,3.22 µM,2.44 µM,> 100 µM,0.371 µM,4.73 µM,0.434 µM,> 100,1.01 µM,> 100,1.12 µM,> 100,0.437 µM,> 100,0.649 µM,3.79,0.189 µM,0.72 µM
COc1ccc(-c2nc(C(=O)c3ccccc3)n(CC(=O)c3ccc(Cl)cc3)c2-c2ccc(OC)cc2)cc1,> 100 µM,> 100 µM,> 100 µM,> 100 µM,85.6 µM,> 100 µM,> 100 µM,> 100 µM,> 100 µM,> 100,> 100 µM,> 100,> 100 µM,> 100,> 100 µM,> 100,> 100 µM,> 100,> 100 µM,> 100 µM
O=C(/C=C/c1ccco1)c1ccc(Nc2nc(Nc3ccc(F)cc3)nc(Nc3ccc(F)cc3)n2)cc1,57.4 µM,> 100 µM,16.9 µM,45.9 µM,4.9 µM,26.8 µM,4.17 µM,41.6 µM,3.74 µM,25.9,6.83 µM,21.9,54.3 µM,> 100,> 100 µM,> 100,12.8 µM,30.5,7.28 µM,> 100 µM
COc1cc(-c2cc(=O)c3c(O)c(OC)c(OC)c(OC)c3o2)cc(OC)c1OC,–,16.9 µM,–,> 100 µM,–,> 100 µM,–,27.3 µM,–,> 100,–,> 100,–,> 100,–,> 100,–,> 100,–,9.14 µM
Cn1cc(-c2nc(N[C@@H]3CCCC[C@@H]3N)c(F)c3c2C(=O)NC3)cn1,3.37 µM and 3.32 µM,29.7 µM and 30.5 µM,15.1 µM and 15.6 µM,42.1 µM and 38.7 µM,6.47 µM and 10 µM,21.3 µM and 29.7 µM,3.62 µM and 4.47 µM,23.9 µM and 29.1 µM,5.81 µM and 6.21 µM,> 100,9.43 µM and 13.3 µM,> 100,14.3 µM and 20.1 µM,> 100,10.4 µM and 13.1 µM,> 100,1.56 µM and 1.67 µM,> 96.1,1.72 µM and 2.45 µM,8.43 µM and 11.3 µM
Cc1c(Cl)cccc1NC(=O)c1sc2nc3c(cc2c1N)CCCC3,0.451 µM,> 100 µM,0.378 µM,> 100 µM,0.591 µM,> 100 µM,0.994 µM,> 100 µM,0.274 µM,> 100,1.11 µM,> 100,0.64 µM,> 100,0.6 µM,> 100,0.39 µM,> 100,0.413 µM,> 100 µM
COc1cccc(NC2=C(Cl)C(=O)N(Cc3ccc(Cl)cc3)C2=O)c1,2.4 µM,12.3 µM,1.62 µM,7.89 µM,0.655 µM,4.18 µM,13.1 µM,35.4 µM,2.09 µM,> 38.8,1.68 µM,10.4,12.5 µM,38.8,1.97 µM,18.3,1.66 µM,7.71,11.8 µM,27.3 µM
CCCCCCCCCCSC(=N)N,3.36 µM,10.3 µM,3.71 µM,13.8 µM,11.3 µM,24.6 µM,1.42 µM,4.59 µM,2.19 µM,6.03,4.76 µM,17.5,10.3 µM,25.3,1.98 µM,4.45,1.89 µM,3.57,4.69 µM,19.3 µM
N#C/C(=C\c1ccc2[nH]ccc2c1)C(=O)c1ccc(O)c(O)c1,–,> 100 µM,–,79.3 µM,–,> 100 µM,–,> 100 µM,–,> 100,–,> 100,–,> 100,–,> 100,–,> 100,–,> 100 µM
Cc1ccc(S(=O)(=O)NC(CO)C(=O)O)cc1 (centres undefined),–,> 100 µM,–,> 100 µM,–,> 100 µM,–,> 100 µM,–,> 100,–,> 100,–,> 100,–,> 100,–,> 100,–,> 100 µM
COc1cc(Cn2c(-c3ccccc3)cc3c2-c2oncc2CC3)cc(OC)c1,0.521 µM,> 100 µM,0.204 µM,0.477 µM,0.9 µM,> 100 µM,4.11 µM,> 100 µM,0.307 µM,> 100,0.677 µM,> 100,0.449 µM,> 100,0.314 µM,> 100,0.299 µM,–,0.153 µM,0.75 µM
CN(C(=O)CNC(=O)/C=C/c1cccc(Cl)c1)C1CCS(=O)(=O)CC1,11 µM,> 100 µM,1.21 µM,> 100 µM,6.09 µM,> 100 µM,> 100 µM,> 100 µM,1.03 µM,> 100,> 100 µM,> 100,34.3 µM,> 100,0.986 µM,> 100,1.48 µM,> 100,0.421 µM,> 100 µM
O=C1/C(=C\c2ccccc2)C2OCC=C3CN4CCC56c7ccccc7N1C5C2C3CC46 (centres undefined),54.3 µM,> 100 µM,36.5 µM,> 100 µM,34.2 µM,> 100 µM,6.27 µM,86.8 µM,5.2 µM,> 100,18 µM,> 100,70.5 µM,> 100,1.83 µM,4.06,1.94 µM,3.72,3.56 µM,48 µM
C/C(=N/O)c1ccc(Nc2cc(-n3ccnc3)c3ccccc3n2)cc1,53.2 µM,> 100 µM,22.5 µM,91.3 µM,16.8 µM,84.7 µM,38.3 µM,> 100 µM,85.3 µM,> 100,3.69 µM,> 100,22 µM,> 100,27.8 µM,> 100,5.75 µM,> 100,27.6 µM,94 µM
